Here are results for 24 compounds from ChEMBL document CHEMBL1641590, “Identification of novel ASK1 inhibitors using virtual screening” (Bioorg Med Chem, 2011).

Each structure is given as a SMILES string.

In one assay the target is T1, Mitogen-activated protein kinase kinase kinase 5 (Homo sapiens, UniProt Q99683).
T1 sequence (Q99683 whole entry): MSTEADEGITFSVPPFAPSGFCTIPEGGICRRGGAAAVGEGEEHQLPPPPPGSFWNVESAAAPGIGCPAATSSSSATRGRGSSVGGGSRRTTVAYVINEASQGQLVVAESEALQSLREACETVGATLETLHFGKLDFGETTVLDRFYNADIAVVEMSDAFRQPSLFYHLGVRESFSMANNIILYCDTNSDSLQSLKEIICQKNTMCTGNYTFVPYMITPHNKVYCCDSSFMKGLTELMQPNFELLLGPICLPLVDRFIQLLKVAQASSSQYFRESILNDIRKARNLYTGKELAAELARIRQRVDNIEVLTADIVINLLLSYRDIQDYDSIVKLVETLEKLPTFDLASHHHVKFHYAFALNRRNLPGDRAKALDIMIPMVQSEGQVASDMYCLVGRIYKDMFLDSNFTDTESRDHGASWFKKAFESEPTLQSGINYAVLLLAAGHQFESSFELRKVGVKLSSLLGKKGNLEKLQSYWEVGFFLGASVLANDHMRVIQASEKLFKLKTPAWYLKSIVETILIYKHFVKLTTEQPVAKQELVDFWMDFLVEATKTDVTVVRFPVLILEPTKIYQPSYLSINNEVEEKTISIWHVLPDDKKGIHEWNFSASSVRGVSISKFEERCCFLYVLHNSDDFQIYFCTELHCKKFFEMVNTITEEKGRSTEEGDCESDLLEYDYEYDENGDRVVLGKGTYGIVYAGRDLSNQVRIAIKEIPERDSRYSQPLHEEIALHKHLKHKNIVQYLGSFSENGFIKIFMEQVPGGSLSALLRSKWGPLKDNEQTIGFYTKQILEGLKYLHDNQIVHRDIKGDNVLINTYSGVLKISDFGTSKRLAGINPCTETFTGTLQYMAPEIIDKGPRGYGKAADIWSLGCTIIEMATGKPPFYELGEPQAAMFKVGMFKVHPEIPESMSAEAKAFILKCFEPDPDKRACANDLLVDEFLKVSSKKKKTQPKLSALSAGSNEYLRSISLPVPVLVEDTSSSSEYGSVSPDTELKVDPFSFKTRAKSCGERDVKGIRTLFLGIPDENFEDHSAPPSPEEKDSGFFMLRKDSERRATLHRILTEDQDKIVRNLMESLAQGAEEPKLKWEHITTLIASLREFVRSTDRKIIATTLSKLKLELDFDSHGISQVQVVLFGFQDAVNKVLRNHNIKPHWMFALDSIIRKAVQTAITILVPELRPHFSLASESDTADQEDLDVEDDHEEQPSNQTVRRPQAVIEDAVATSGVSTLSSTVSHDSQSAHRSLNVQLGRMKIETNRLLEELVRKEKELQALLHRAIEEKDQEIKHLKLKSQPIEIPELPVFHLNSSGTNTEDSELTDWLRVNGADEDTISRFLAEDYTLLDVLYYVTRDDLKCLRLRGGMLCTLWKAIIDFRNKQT
In words: Inhibition of ASK1 assessed as phosphorylated fluorescent peptide by mobility shift assay.
Usually IC50 stands for the concentration that gives 50% inhibition. As for `CCCN(CCC)c1[nH]cnc2ncnc1-2`, the IC50 amounted to 25.8 µM.
Take `CC(C)(C)c1ccc(C(=O)Nc2cn3c(ccc4ccccc43)n2)cc1`: the IC50 turned out to be 0.015 µM.
As to `CSc1nc(N)nc2[nH]cnc12`, the IC50 is 13.3 µM.
Take `c1nc(N2CCCCC2)c2nc[nH]c2n1`: the IC50 stood at 17 µM.
Regarding `CC(C)(C)c1ccc(C(=O)Nc2cn3cc(-n4ccnc4)ccc3n2)cc1`, the IC50 was 0.014 µM.
For the compound `COc1ccc(OC)c(Nc2nc(N)nc3[nH]cnc23)c1`, the IC50 stood at 18.9 µM.
On to `CC(C)(C(=O)O)c1ccc(C(=O)Nc2cn3cc(-c4ccsc4)ccc3n2)cc1`, for which the IC50 came to 0.019 µM.

In the next assay the target is T2, Mitogen-activated protein kinase kinase kinase 5 (Homo sapiens) (UniProt Q99683).
T2 sequence (whole entry): T1 sequence (Q99683 whole entry)
In words: Inhibition of ASK1 assessed as phosphorylated fluorescent peptide at 10 uM by mobility shift assay.
The inhibition is the share of the control response that was lost under treatment. For `Nc1nc(OCC2CCCCC2)c2nc[nH]c2n1`, the inhibition is above 50%.
On to `CCCN(CCC)c1[nH]cnc2ncnc1-2`, for which the inhibition was above 50%.
Still for that read-out and setting: to `Nc1nc(SCc2c(Cl)cccc2Cl)c2nc[nH]c2n1` belongs above 30%.
For `CNc1nc(-c2cccnc2)cn2ccnc12`, the inhibition is above 30%.
Take `CS(=O)(=O)c1ccc(C(=O)Nc2nc3ccccc3[nH]2)cc1[N+](=O)[O-]`: the inhibition was above 30%.
Regarding `O=C(Nc1ccc(N2CCOCC2)cc1)c1n[nH]c2ccccc12`, the inhibition is above 30%.
The same measure, in the same setting: with `CSc1nc(N)nc2[nH]cnc12` the figure was above 50%.
Same read-out and setting: with `c1nc(N2CCCCC2)c2nc[nH]c2n1` the figure was above 50%.
For the compound `Cc1c(C)n(C2CCCC2)c2nc[nH]c(=O)c12`, the inhibition is above 30%.
Regarding `COc1cccc(C(=O)NN2CC(=O)C(c3nc4ccccc4c(=O)[nH]3)=C2N)c1`, the inhibition was above 30%.
Still for that read-out and setting: to `Nc1nc(OCc2ccccc2)c2nc[nH]c2n1` belongs above 30%; to `NC(=O)c1ccc(-n2cnc3ccccc32)cc1`, above 30%.
Turning to `Nc1nc(SCCCCC(O)O)c2nc[nH]c2n1`, the inhibition is above 30%.
The same measure, in the same setting: to `CCNc1nc(N)c(C(C)=O)s1` belongs above 30%.
As to `Cc1c(C)n(CC(C)C)c2ncnc(N)c12`, the inhibition was above 30%.
For `CNc1nc(N)c(C(=O)c2ccc(F)cc2)s1`, the inhibition is above 30%.
Consider `O=C(Nc1nc2ccccc2[nH]1)c1ccc2ncsc2c1`, for which the inhibition is above 30%.
In the case of `COc1ccc(OC)c(Nc2nc(N)nc3[nH]cnc23)c1`, the inhibition was above 50%.
In the case of `Nc1nc(N)c2c(Cl)c(Br)ccc2n1`, the inhibition is above 30%.
With `CN(C)c1ncnc2nc[nH]c12`, the inhibition was above 30%.
For `Nc1nc(Nc2cccc3ccccc23)c2nc[nH]c2n1`, the inhibition was above 30%.
